# Reference: ChEMBL document CHEMBL4715739, “7,7-Dimethylaporphine and Other Alkaloids from the Bark of Guatteria friesiana” (J Nat Prod, 2016)
# Assays:
# [1] = system: B16-F10; assay: Cytotoxicity against mouse B16-F10 cells assessed as reduction in cell viability incubated for 72 hrs by Alamar blue assay; assay type: functional, cell-based; conditions: B16-F10, 72 h
# [2] = system: HepG2; assay: Cytotoxicity against human HepG2 cells assessed as reduction in cell viability incubated for 72 hrs by Alamar blue assay; assay type: functional, cell-based; conditions: HepG2, 72 h
# [3] = system: HL-60; assay: Cytotoxicity against human HL-60 cells assessed as reduction in cell viability incubated for 72 hrs by Alamar blue assay; assay type: functional, cell-based; conditions: HL-60, 72 h
# [4] = system: K562; assay: Cytotoxicity against human K562 cells assessed as reduction in cell viability incubated for 72 hrs by Alamar blue assay; assay type: functional, cell-based; conditions: K562, 72 h
# [5] = Cytotoxicity against human PBMC cells assessed as reduction in cell viability incubated for 72 hrs by Alamar blue assay; assay type: cell-based
Compound,IC50 [1],IC50 [2],IC50 [3],IC50 [4],IC50 [5]
O=C1c2ccccc2-c2c3c(cc4ccnc1c24)OCO3 [LIRIODENINE],> 10 µM,8.3 µM,5.5 µM,5 µM,34.8 µM
COc1cccc2c1C(=O)c1c(O)c3c(c(O)c1C2=O)C[C@@](O)(C(=O)CO)C[C@@H]3O[C@H]1C[C@H](N)[C@H](O)[C@H](C)O1 [DOXORUBICIN],2.3 µM,0.2 µM,0.8 µM,0.7 µM,–
